Data as given in patent US11033539B2, “Compounds of formulas (VII), (VIII), (IX), (XI), (XII), (XIII), and (XIV) as muscarinic receptor 4(M4) antagonists for treating neurological diseases” (Neurocrine Biosciences, Inc., priority 2015, dated 2021).

Biological target: human M4 receptor (Homo sapiens (Human), UniProt P08173)
Assay: Radioligand (tritiated N-methylscopolamine) binding assay, M4
Details: Ki against the M4 receptor; membranes from CHO cells expressing human M4; tritiated N-methylscopolamine 1.5 nM; read-out: Ki
Summary of the method: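 Membranes came from recombinant CHO cells expressing human muscarinic subtypes and were incubated with compound and [3H]NMS (1.5 nM) in HEPES/NaCl/MgCl2/EDTA buffer, pH 7.4, at 37° C for 90 min. Twelve-point dose-response (printed 10–[…]). Filter-bound radioactivity was counted and Ki values derived.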

Chain of human M4 receptor (P08173 whole entry): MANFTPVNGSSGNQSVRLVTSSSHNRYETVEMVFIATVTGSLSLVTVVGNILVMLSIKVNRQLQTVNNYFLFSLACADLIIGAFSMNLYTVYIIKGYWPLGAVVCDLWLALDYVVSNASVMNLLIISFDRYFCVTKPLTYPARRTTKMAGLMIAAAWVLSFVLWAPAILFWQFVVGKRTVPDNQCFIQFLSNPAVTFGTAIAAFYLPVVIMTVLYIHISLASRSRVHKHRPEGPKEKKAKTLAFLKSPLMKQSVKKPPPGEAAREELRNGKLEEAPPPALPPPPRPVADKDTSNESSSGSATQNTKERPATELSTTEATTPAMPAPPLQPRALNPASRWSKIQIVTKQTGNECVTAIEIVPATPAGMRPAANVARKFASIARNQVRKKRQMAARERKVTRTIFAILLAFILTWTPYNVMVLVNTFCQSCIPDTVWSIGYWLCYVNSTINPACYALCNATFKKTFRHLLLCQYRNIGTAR

| Ki [nM] | Molecule |
| --- | --- |
| 10 to 100 | COc1ccc(N2CCN(C(=O)NCCC3CCN(Cc4ccccc4)CC3)[C@H](C)C2)cc1F [4-70, (2R)-N-[2-(1-benzylpiperidin-4-yl)ethyl]-4-(3-fluoro-4-methoxyphenyl)-2-methylpiperazine-1-carboxamide] |
| 10 to 100 | Cc1c(C(=O)NCCC2CCN(Cc3cccc4c3OCCO4)CC2)cnc2cc(-c3ccccc3)nn12 [19-2] |
| 100 to 1000 | O=C(NCCC1CCN(CC2CCCCC2)CC1)C1CCN(c2ccc(OC(F)(F)F)cc2)CC1 [11-21, N-{2-[1-(cyclohexylmethyl)piperidin-4-yl]ethyl}-1-[4-(trifluoromethoxy)phenyl]piperidine-4-carboxamide] |
| 100 to 1000 | Cc1c(C(=O)NCCC2CCN(CC3CCCCC3)CC2)cnc2cc(-c3cccc(C(F)(F)F)c3)nn12 [19-3] |
| 100 to 1000 | O=C(OCCC1CCN(Cc2ccccc2)CC1)N1CCC(O)(c2ccccc2)CC1 [12-7, 2-(1-benzylpiperidin-4-yl)ethyl 4-hydroxy-4-phenylpiperidine-1-carboxylate] |
| 100 to 1000 | C[C@@H]1CN(c2ncc(C#N)cn2)C[C@H](C)N1C(=O)NCCC1CCN(Cc2cccnc2F)CC1 [6-64, (2R,6S)-4-(5-cyanopyrimidin-2-yl)-N-(2-{1-[(2-fluoropyridin-3-yl)methyl]piperidin-4-yl}ethyl)-2,6-dimethylpiperazine-1-carboxamide] |
| 100 to 1000 | N#Cc1cc(F)ccc1N1CCC(C(=O)NCCC2CCN(Cc3ccccc3)CC2)CC1 [10-69, N-[2-(1-benzylpiperidin-4-yl)ethyl]-1-(2-cyano-4-fluorophenyl)piperidine-4-carboxamide] |
| 100 to 1000 | N#Cc1ccc(N2CCC(C(=O)NCCC3CCN(CC4CCCCC4)CC3)CC2)nc1 [11-8, 1-(5-cyanopyridin-2-yl)-N-{2-[1-(cyclohexylmethyl)piperidin-4-yl]ethyl}piperidine-4-carboxamide] |
| 100 to 1000 | Cc1nc(C(=O)NCCC2CCN(Cc3ccccc3)CC2)cn1-c1ccc(C#N)cn1 [9-74, N-[2-(1-benzylpiperidin-4-yl)ethyl]-1-(5-cyanopyridin-2-yl)-2-methyl-1H-imidazole-4-carboxamide] |
| 100 to 1000 | C[C@@H]1CN(c2ccccn2)CCN1C(=O)NCCC1CCN(Cc2ccccc2)CC1 [4-62, (2R)-N-[2-(1-benzylpiperidin-4-yl)ethyl]-2-methyl-4-(pyridin-2-yl)piperazine-1-carboxamide] |
| 100 to 1000 | Cc1cc(C)nc(N2CCC(C(=O)NCCC3CCN(Cc4ccccc4)CC3)CC2)n1 [10-74, N-[2-(1-benzylpiperidin-4-yl)ethyl]-1-(4,6-dimethylpyrimidin-2-yl)piperidine-4-carboxamide] |
| 10 to 100 | C[C@@H]1CN(c2cc(F)c(F)c(F)c2)CCN1C(=O)NCCC1CCN(Cc2ccccn2)CC1 [6-7, (2R)-2-methyl-N-{2-[1-(pyridin-2-ylmethyl)piperidin-4-yl]ethyl}-4-(3,4,5-trifluorophenyl)piperazine-1-carboxamide] |
| 10 to 100 | O=C(NCCC1CCN(Cc2ccccc2)CC1)N1CCN(c2ccc(Cl)cc2)CC1 [8-13, N-[2-(1-benzylpiperidin-4-yl)ethyl]-4-(4-chlorophenyl)piperazine-1-carboxamide] |
| 100 to 1000 | COC(=O)c1cc(Cl)nc(N2CCN(C(=O)NCCC3CCN(Cc4ccccc4)CC3)[C@H](C)C2)n1 [5-11, methyl 2-[(3R)-4-{[2-(1-benzylpiperidin-4-yl)ethyl]carbamoyl}-3-methylpiperazin-1-yl]-6-chloropyrimidine-4-carboxylate] |
| 100 to 1000 | O=C(NCCC1CCN(Cc2ccccc2)CC1)N1CCN(c2ccccc2F)CC1 [8-34, N-[2-(1-benzylpiperidin-4-yl)ethyl]-4-(2-fluorophenyl)piperazine-1-carboxamide] |
| 10 to 100 | C[C@@H]1CN(c2ncc(C#N)cn2)C[C@H](C)N1C(=O)NCCC1CCN(Cc2ccc3occc3c2)CC1 [6-60, (2R,6S)-N-{2-[1-(1-benzofuran-5-ylmethyl)piperidin-4-yl]ethyl}-4-(5-cyanopyrimidin-2-yl)-2,6-dimethylpiperazine-1-carboxamide] |
| 100 to 1000 | CN(C(=O)c1ccc(Cl)c(-c2nc3ccccc3cc2C#N)c1)[C@@H]1CCN(C2CCCCC2)C1 [9-18, 4-chloro-3-(3-cyanoquinolin-2-yl)-N-[(3R)-1-cyclohexylpyrrolidin-3-yl]-N-methylbenzamide] |
| 10 to 100 | CCCn1c(=O)c2nc(-c3ccc(C(=O)NCCC4CCN(Cc5ccccc5)CC4)cc3)[nH]c2n(CCC)c1=O [9-45, N-[2-(1-benzylpiperidin-4-yl)ethyl]-4-(2,6-dioxo-1,3-dipropyl-2,3,6,9-tetrahydro-1H-purin-8-yl)benzamide] |
| 10 to 100 | N#Cc1ccc(N2CCC(C(=O)NCCC3CCN(Cc4ccccc4)CC3)CC2)cc1 [9-29, N-[2-(1-benzylpiperidin-4-yl)ethyl]-1-(4-cyanophenyl)piperidine-4-carboxamide] |
| 10 to 100 | C[C@@H]1CN(c2ccccc2)CCN1C(=O)NCCC1CCN(Cc2ccccc2)CC1 [4-47, (2R)-N-[2-(1-benzylpiperidin-4-yl)ethyl]-2-methyl-4-phenylpiperazine-1-carboxamide] |
| 100 to 1000 | O=C(NCC(O)C1CCN(CC2CCCCC2)CC1)C1CCN(c2ccc(OC(F)(F)F)cc2)CC1 (centres unmarked) [11-23, N-{2-[1-(cyclohexylmethyl)piperidin-4-yl]-2-hydroxyethyl}-1-[4-(trifluoromethoxy)phenyl]piperidine-4-carboxamide] |

| Ki [nM] | Molecule |
| --- | --- |
| 100 to 1000 | Cc1c(C(=O)NCCC2CCN(Cc3ccccc3)CC2)cnc2cc(-c3ccc(F)nc3)nn12 [18-15] |
| 100 to 1000 | O=C(NCCC1CCN(Cc2ccccc2)CC1)C1(O)CCN(c2ccc(OC(F)(F)F)cn2)CC1 [10-61, N-[2-(1-benzylpiperidin-4-yl)ethyl]-4-hydroxy-1-[5-(trifluoromethoxy)pyridin-2-yl]piperidine-4-carboxamide] |
| 10 to 100 | CC(c1ccccc1)N1CCC(CCNC(=O)N2CCN(c3cc(F)c(F)c(F)c3)C[C@H]2C)CC1 (stereo partly drawn) [6-14, (2R)-2-methyl-N-{2-[1-(1-phenylethyl)piperidin-4-yl]ethyl}-4-(3,4,5-trifluorophenyl)piperazine-1-carboxamide] |
| 10 to 100 | C[C@@H]1CN(c2ccc(Cl)nc2)CCN1C(=O)NCCC1CCN(Cc2ccccc2)CC1 [22-11] |
| 10 to 100 | CN(C1CCN(C(=O)C2CCN(c3ccc(OC(F)(F)F)cc3)CC2)CC1)[C@@H]1CCN(Cc2ccccc2)C1 [9-33, N-[(3R)-1-benzylpyrrolidin-3-yl]-N-methyl-1-{1-[4-(trifluoromethoxy)phenyl]piperidine-4-carbonyl}piperidin-4-amine] |
| 100 to 1000 | C[C@@H]1CN(c2ccc(F)c(C#N)c2)CCN1C(=O)N(C)C[C@@H](O)C1CCN(Cc2ccccc2)CC1 [3-3, (2R)-N-[(2S)-2-(1-benzylpiperidin-4-yl)-2-hydroxyethyl]-4-(3-cyano-4-fluorophenyl)-N,2-dimethylpiperazine-1-carboxamide] |
| 10 to 100 | O=C(NCCC1CCN(Cc2ccccc2)CC1)N1CCN(c2cc(F)c(F)c(F)c2)CC1 [4-74, N-[2-(1-benzylpiperidin-4-yl)ethyl]-4-(3,4,5-trifluorophenyl)piperazine-1-carboxamide] |
| 100 to 1000 | O=C(NCCN1CCC(O)(Cc2ccccc2)CC1)c1ccn2cc(-c3ccc(OC(F)(F)F)cc3)nc2c1 [9-19, N-[2-(4-benzyl-4-hydroxypiperidin-1-yl)ethyl]-2-[4-(trifluoromethoxy)phenyl]imidazo[1,2-a]pyridine-7-carboxamide] |
| 10 to 100 | CC(C)CNC(=O)c1cnc(N2CCN(C(=O)NCCC3CCN(Cc4ccccc4)CC3)[C@H](C)C2)nc1 [27-12] |
| 10 to 100 | COC(=O)C(c1ccccc1)N1CCC(CCNC(=O)C2CCN(c3ccc(OC(F)(F)F)cc3)CC2)CC1 (stereo not drawn) [11-6, methyl 2-phenyl-2-{4-[2-({l-[4-(trifluoromethoxy)phenyl]piperidin-4-yl}formamido)ethyl]piperidin-1-yl}acetate] |
| 100 to 1000 | O=C(OCCC1CCN(Cc2ccccc2)CC1)N1CCC(c2ccccc2)CC1 [12-8, 2-(1-benzylpiperidin-4-yl)ethyl 4-phenylpiperidine-1-carboxylate] |
| 100 to 1000 | COC1(C(=O)NCCC2CCN(Cc3ccccc3)CC2)CCN(c2ccc(C(F)(F)F)cn2)CC1 [10-48, N-[2-(1-benzylpiperidin-4-yl)ethyl]-4-methoxy-1-[5-(trifluoromethyl)pyridin-2-yl]piperidine-4-carboxamide] |
| 100 to 1000 | O=C(NCC[C@H]1CCN(Cc2ccccc2)C1)C1CCN(c2ccc(OC(F)(F)F)cc2)CC1 [9-49, N-{2-[(3S)-1-benzylpyrrolidin-3-yl]ethyl}-1-[4-(trifluoromethoxy)phenyl]piperidine-4-carboxamide] |
| 100 to 1000 | C[C@@H]1CN(c2ncc(C#N)cn2)C[C@H](C)N1C(=O)NCCC1CCN(Cc2cccnc2)CC1 [6-61, (2R,6S)-4-(5-cyanopyrimidin-2-yl)-2,6-dimethyl-N-{2-[1-(pyridin-3-ylmethyl)piperidin-4-yl]ethyl}piperazine-1-carboxamide] |
| 100 to 1000 | 4-phenoxy-N-{2-[1-(3-phenylpropyl)piperidin-4-yl]ethyl}benzamide [11-28] |
| 100 to 1000 | CC(C)CCN1CCC(CCNC(=O)N2[C@H](C)CN(c3ncc(C#N)cn3)C[C@@H]2C)CC1 [21-8] |
| 100 to 1000 | C[C@@H]1CN(c2ncc(C(F)(F)F)cn2)CCN1C(=O)NCCC1CCN(Cc2ccccc2C#N)CC1 [6-34, (2R)-N-(2-{1-[(2-cyanophenyl)methyl]piperidin-4-yl}ethyl)-2-methyl-4-[5-(trifluoromethyl)pyrimidin-2-yl]piperazine-1-carboxamide] |
| 100 to 1000 | CCN(C)C(=O)c1cnc(N2CCN(C(=O)NCCC3CCN(Cc4ccccc4)CC3)[C@H](C)C2)nc1 [27-9] |
| 100 to 1000 | CC(c1ccccc1)N1CCC(CCNC(=O)c2ccc(OCc3ccccc3)cc2)CC1 (centres unmarked) [11-14, 4-(benzyloxy)-N-{2-[1-(1-phenylethyl)piperidin-4-yl]ethyl}benzamide] |
| 100 to 1000 | C[C@@H]1CN(c2ncc(C#N)cn2)C[C@H](C)N1C(=O)NCCC1CCN(Cc2ccccn2)CC1 [21-3] |
